For the test, the target named is recombinant SARS-CoV-2 M^pro (Severe acute respiratory syndrome coronavirus 2 (2019-nCoV) (SARS-CoV-2), UniProt P0DTD1). In words: Inhibition of SARS-CoV-2 M^pro enzyme activity (fluorescent substrate assay). The settings on record: values in nM. It is filed as biochemical.
Where [1] appears, read: inhibition of SARS-CoV-2 M^pro enzyme activity, read-out: IC50.

The results in this text go back to US20250064789A1, “KETOAMIDE DERIVATIVES AND PHARMACEUTICAL USES THEREOF” (priority 2022, published 2025).

The structures appear in SMILES notation. Read-outs that look alike come from different tables or passages of the source.

`C[C@@H](NC(=O)Cc1ccc(F)cc1)C(=O)N[C@H](Cc1ccccc1)C(=O)C(=O)NCc1ccccn1` [Compound 75]: the IC50 under setting [1] amounted to 19.3 ± 0.7 nM. As for `C[C@@H](NC(=O)Cc1ccc(Cl)cc1)C(=O)N[C@H](Cc1ccccc1)C(=O)C(=O)NCc1ccccn1` [Compound 76], the IC50 under setting [1] amounted to 23 ± 1.1 nM. `COc1ccc(CC(=O)N[C@H](C)C(=O)N[C@H](Cc2ccccc2)C(=O)C(=O)NCc2ccccn2)cc1` [Compound 77]: under setting [1], the 50% inhibitory concentration (IC50) is 24.1 nM. Turning to `C[C@@H](NC(=O)Cc1ccc(C(F)(F)F)cc1)C(=O)N[C@H](Cc1ccccc1)C(=O)C(=O)NCc1ccccn1` [Compound 78], under setting [1], the half-maximal inhibitory concentration (IC50) is 53.2 ± 0.5 nM. For the compound `C[C@@H](NC(=O)Cc1cc(F)cc(F)c1)C(=O)N[C@H](Cc1ccccc1)C(=O)C(=O)NCc1ccccn1` [Compound 79], the IC50 under setting [1] came to 10.9 ± 0.1 nM. Still for that read-out and setting: the result for `C[C@@H](NC(=O)COC(F)(F)F)C(=O)N[C@H](Cc1ccccc1)C(=O)C(=O)NCc1ccccn1` [Compound 80] reads 58.6 ± 3.2 nM.

For `C[C@@H](NC(=O)C(C)(C)Oc1ccc([Si](C)(C)C)cc1Cl)C(=O)N[C@H](Cc1ccccc1)C(=O)C(=O)NCc1ccccn1` [Compound 81], the IC50 (IC50, inhibition of SARS-CoV-2 M^pro enzyme activity) amounted to 27.9 ± 5.5 nM. On to `C[C@@H](NC(=O)C(C)(C)Oc1ccc(Cl)cc1F)C(=O)N[C@H](Cc1ccccc1)C(=O)C(=O)NCc1ccccn1` [Compound 82], for which the IC50 under setting [1] was found to be 5.8 ± 0.1 nM. On to `CC(C)C(Oc1ccc(Cl)cc1)C(=O)N[C@H](C)C(=O)N[C@H](Cc1ccccc1)C(=O)C(=O)NCc1ccccn1` (some centres unmarked) [Compound 83], for which the IC50 under setting [1] was 6.7 ± 0.1 nM.

Take `C[C@@H](NC(=O)COc1ccc(Cl)cc1)C(=O)N[C@H](Cc1ccccc1)C(=O)C(=O)NCc1ccccn1` [Compound 84]: under setting [1], the half-maximal inhibitory concentration (IC50) was determined as 40 ± 2.4 nM. Turning to `C[C@@H](NC(=O)C1CCc2cc(F)ccc2O1)C(=O)N[C@H](Cc1ccccc1)C(=O)C(=O)NCc1ccccn1` (some centres unmarked) [Compound 85], under setting [1], the 50% inhibitory concentration (IC50) turned out to be 56.7 ± 2.7 nM. Turning to `C[C@@H](NC(=O)COc1ccc(Cl)cc1F)C(=O)N[C@H](Cc1ccccc1)C(=O)C(=O)NCc1ccccn1` [Compound 86], under setting [1], the concentration for half-maximal inhibition (IC50) came to 70.5 ± 2.5 nM. For `COc1ccc(OC(C)C(=O)N[C@H](C)C(=O)N[C@H](Cc2ccccc2)C(=O)C(=O)NCc2ccccn2)cc1` (some centres unmarked) [Compound 87], the IC50 under setting [1] is 42.1 ± 1 nM. `CC(Oc1ccc(Cl)cc1Cl)C(=O)N[C@H](C)C(=O)N[C@H](Cc1ccccc1)C(=O)C(=O)NCc1ccccn1` (some centres unmarked) [Compound 88]: the IC50 under setting [1] turned out to be 24.4 nM.

Regarding `COc1ccccc1OCC(=O)N[C@H](C)C(=O)N[C@H](Cc1ccccc1)C(=O)C(=O)NCc1ccccn1` [Compound 89], under setting [1], the IC50 worked out at 40.9 ± 1.2 nM. Consider `C[C@@H](NC(=O)COc1ccc2ccccc2c1)C(=O)N[C@H](Cc1ccccc1)C(=O)C(=O)NCc1ccccn1` [Compound 91], for which the 50% inhibitory concentration (IC50) under setting [1] was 48.4 ± 2 nM.

`COc1ccc(OCC(=O)N[C@H](C)C(=O)N[C@H](Cc2ccccc2)C(=O)C(=O)NCc2ccccn2)cc1` [Compound 92]: the IC50 under setting [1] was determined as 26.6 ± 0.4 nM.

As to `C[C@@H](NC(=O)COc1cccc(F)c1)C(=O)N[C@H](Cc1ccccc1)C(=O)C(=O)NCc1ccccn1` [Compound 93], the concentration for half-maximal inhibition (IC50) under setting [1] is 28.8 ± 1 nM. Regarding `C[C@@H](NC(=O)C(F)Oc1ccc(Cl)cc1Cl)C(=O)N[C@H](Cc1ccccc1)C(=O)C(=O)NCc1ccccn1` (some centres unmarked) [Compound 94], under setting [1], the IC50 was found to be 13.5 ± 1.3 nM. Same read-out and setting: for `C[C@@H](NC(=O)C(C)(C)Sc1ccc(Cl)cc1Cl)C(=O)N[C@H](Cc1ccccc1)C(=O)C(=O)NCc1ccccn1` [Compound 95] the value was 8.2 ± 1.1 nM; for `CC(Oc1ccc(C(F)(F)F)cc1)C(=O)N[C@H](C)C(=O)N[C@H](Cc1ccccc1)C(=O)C(=O)NCc1ccccn1` (some centres unmarked) [Compound 96], 20.2 ± 0.7 nM.

For the compound `CC(Oc1ccc(C2CC2(Cl)Cl)cc1)C(=O)N[C@H](C)C(=O)N[C@H](Cc1ccccc1)C(=O)C(=O)NCc1ccccn1` (some centres unmarked) [Compound 97], the IC50 under setting [1] was 37.2 ± 4.8 nM. As to `C[C@@H](NC(=O)c1ccc(Cl)c(F)c1)C(=O)N[C@H](Cc1ccccc1)C(=O)C(=O)NCc1ccccn1` [Compound 98], the concentration for half-maximal inhibition (IC50) under setting [1] is 40.7 ± 1.9 nM. Consider `C[C@@H](NC(=O)c1ccc(Cl)c(Cl)c1)C(=O)N[C@H](Cc1ccccc1)C(=O)C(=O)NCc1ccccn1` [Compound 99], for which, under setting [1], the IC50 came out at 27.8 ± 1.1 nM.

Consider `C[C@@H](NC(=O)c1ccc(Cl)cc1F)C(=O)N[C@H](Cc1ccccc1)C(=O)C(=O)NCc1ccccn1` [Compound 100], for which the IC50 under setting [1] is 13 ± 1.4 nM. Still for that read-out and setting: for `C[C@@H](NC(=O)c1cc(F)cc(Cl)c1)C(=O)N[C@H](Cc1ccccc1)C(=O)C(=O)NCc1ccccn1` [Compound 101] the value was 21.6 ± 0.8 nM. With `C[C@@H](NC(=O)C1Cc2ccccc2O1)C(=O)N[C@H](Cc1ccccc1)C(=O)C(=O)NCc1ccccn1` (some centres unmarked) [Compound 102], under setting [1], the IC50 was determined as 26.6 ± 0.4 nM.

`C[C@@H](NC(=O)c1ccc(F)c(S(C)(=O)=O)c1)C(=O)N[C@H](Cc1ccccc1)C(=O)C(=O)NCc1ccccn1` [Compound 103]: under setting [1], the IC50 turned out to be 28.8 ± 1 nM.

Take `C[C@@H](NC(=O)C1CC1c1ccccc1)C(=O)N[C@H](Cc1ccccc1)C(=O)C(=O)NCc1ccccn1` (some centres unmarked) [Compound 104]: under setting [1], the IC50 came out at 16.8 ± 1.1 nM. Turning to `C[C@@H](NC(=O)c1cc(F)cc(C#N)c1)C(=O)N[C@H](Cc1ccccc1)C(=O)C(=O)NCc1ccccn1` [Compound 105], under setting [1], the IC50 was found to be 25.3 ± 1.7 nM.

As to `C[C@@H](NC(=O)c1cnccn1)C(=O)N[C@H](Cc1ccccc1)C(=O)C(=O)NCc1ccccn1` [Compound 106], under setting [1], the IC50 came out at 161 ± 4.1 nM. For the compound `C[C@@H](NC(=O)C1(O)CCCCC1)C(=O)N[C@H](Cc1ccccc1)C(=O)C(=O)NCc1ccccn1` [Compound 107], the IC50 under setting [1] was determined as 52 ± 0.2 nM. Same read-out and setting: the result for `C[C@@H](NC(=O)c1ccnc(F)c1)C(=O)N[C@H](Cc1ccccc1)C(=O)C(=O)NCc1ccccn1` [Compound 108] reads 66.4 ± 1.2 nM; that for `C[C@@H](NC(=O)/C=C/c1ccc(F)cc1)C(=O)N[C@H](Cc1ccccc1)C(=O)C(=O)NCc1ccccn1` [Compound 109], 168.9 ± 0.1 nM; that for `C[C@@H](NC(=O)C1CCC(C(F)(F)F)CC1)C(=O)N[C@H](Cc1ccccc1)C(=O)C(=O)NCc1ccccn1` (some centres unmarked) [Compound 110], 31.3 ± 0.1 nM.

As to `C[C@@H](NC(=O)CC1CCC(F)(F)CC1)C(=O)N[C@H](Cc1ccccc1)C(=O)C(=O)NCc1ccccn1` [Compound 111], under setting [1], the half-inhibitory concentration (IC50) stood at 25.3 ± 0.2 nM.

On to `C[C@@H](NC(=O)COc1cccnc1)C(=O)N[C@H](Cc1ccccc1)C(=O)C(=O)NCc1ccccn1` [Compound 112], for which the IC50 under setting [1] came out at 112.6 ± 0.5 nM. As to `C[C@@H](NC(=O)[C@@H](NC(=O)NC1(CS(=O)(=O)C(C)(C)C)CCCCC1)C(C)(C)C)C(=O)N[C@H](Cc1ccccc1)C(=O)C(=O)NCc1ccccn1` [Compound 113], the concentration for half-maximal inhibition (IC50) under setting [1] amounted to 69.1 ± 8.1 nM.

For the compound `C[C@@H](NC(=O)COC1CCCCC1)C(=O)N[C@H](Cc1ccccc1)C(=O)C(=O)NCc1ccccn1` [Compound 114], the IC50 under setting [1] amounted to 34.9 ± 1 nM. With `C[C@@H](NC(=O)COc1cccc(C#N)c1)C(=O)N[C@H](Cc1ccccc1)C(=O)C(=O)NCc1ccccn1` [Compound 115], under setting [1], the IC50 turned out to be 37.8 ± 3 nM. As to `C[C@@H](NC(=O)C1CCS(=O)(=O)CC1)C(=O)N[C@H](Cc1ccccc1)C(=O)C(=O)NCc1ccccn1` [Compound 116], the half-maximal inhibitory concentration (IC50) under setting [1] is 130.1 ± 0.4 nM. Regarding `C[C@@H](NC(=O)[C@H]1CC[C@H](C#N)CC1)C(=O)N[C@H](Cc1ccccc1)C(=O)C(=O)NCc1ccccn1` [Compound 117], the IC50 under setting [1] is 46.1 ± 0.3 nM. As for `C[C@@H](NC(=O)C1C2CCCC2CN1C(=O)OC(C)(C)C)C(=O)N[C@H](Cc1ccccc1)C(=O)C(=O)NCc1ccccn1` (some centres unmarked) [Compound 118], the half-inhibitory concentration (IC50) under setting [1] came to 40.2 ± 3.4 nM.

In the case of `C[C@H](C(=O)N[C@H](Cc1ccccc1)C(=O)C(=O)NCc1ccccn1)N(C)C(=O)C1CCC(F)(F)CC1` [Compound 119], the 50% inhibitory concentration (IC50) under setting [1] turned out to be 16.5 ± 1.5 nM. Take `C[C@@H](NC(=O)C1CCC(F)(F)CC1)C(=O)N[C@H](Cc1ccccc1)C(=O)C(=O)NCc1ccc(Cl)cn1` [Compound 120]: the IC50 under setting [1] is 113.3 ± 1 nM.

Consider `C[C@@H](NC(=O)C1CCC(F)(F)C1)C(=O)N[C@H](Cc1ccccc1)C(=O)C(=O)NCc1ccccn1` (some centres unmarked) [Compound 121], for which the IC50 under setting [1] was found to be 50.7 ± 0.4 nM. As for `C[C@@H](NC(=O)[C@H]1CC(=O)N([C@@H](C)c2ccccc2)C1)C(=O)N[C@H](Cc1ccccc1)C(=O)C(=O)NCc1ccccn1` [Compound 122], under setting [1], the IC50 is 280.9 ± 2.3 nM. Consider `CC[C@@H](C(=O)N[C@H](C)C(=O)N[C@H](Cc1ccccc1)C(=O)C(=O)NCc1ccccn1)N1CCCC1=O` [Compound 123], for which the IC50 under setting [1] is 163 ± 2 nM. Same read-out and setting: for `C[C@H](c1ccccc1)N1C[C@H](C(=O)N[C@H](C)C(=O)N[C@H](Cc2ccccc2)C(=O)C(=O)NCc2ccccn2)CC1=O` [Compound 124] the value was 45.1 ± 0.6 nM. For `C[C@@H](NC(=O)CC1CCC(F)(F)CC1)C(=O)N[C@H](Cc1ccccc1)C(=O)C(=O)NCc1ccccn1` [Compound 125], under setting [1], the half-maximal inhibitory concentration (IC50) stood at 19.7 ± 1.2 nM. Still for that read-out and setting: for `C[C@@H](NC(=O)[C@H]1CC[C@@H](F)CC1)C(=O)N[C@H](Cc1ccccc1)C(=O)C(=O)NCc1ccccn1` [Compound 127] the value was 40.8 ± 0.6 nM. The same measure, in the same setting: the result for `C[C@@H](NC(=O)C1(F)CCCCC1)C(=O)N[C@H](Cc1ccccc1)C(=O)C(=O)NCc1ccccn1` [Compound 128] reads 9.4 ± 1.3 nM; that for `CC(C(=O)N[C@H](C)C(=O)N[C@H](Cc1ccccc1)C(=O)C(=O)NCc1ccccn1)C1CCCCC1` (some centres unmarked) [Compound 130], 98.6 ± 6.8 nM; that for `C[C@@H](NC(=O)CC1CCS(=O)(=O)CC1)C(=O)N[C@H](Cc1ccccc1)C(=O)C(=O)NCc1ccccn1` [Compound 131], 36.8 ± 0.1 nM.

As to `C[C@@H](NC(=O)c1cnn(-c2ccccc2)c1)C(=O)N[C@H](Cc1ccccc1)C(=O)C(=O)NCc1ccccn1` [Compound 132], under setting [1], the IC50 was 158 ± 26.2 nM. Take `C[C@@H](NC(=O)[C@H]1CC[C@@H](NC(=O)OC(C)(C)C)CC1)C(=O)N[C@H](Cc1ccccc1)C(=O)C(=O)NCc1ccccn1` [Compound 133]: the IC50 under setting [1] was 198 ± 9.6 nM. `C[C@@H](NC(=O)CC1CC(F)(F)C1)C(=O)N[C@H](Cc1ccccc1)C(=O)C(=O)NCc1ccccn1` [Compound 134]: the 50% inhibitory concentration (IC50) under setting [1] turned out to be 24.5 nM.

Consider `C[C@@H](NC(=O)CC1CCOCC1)C(=O)N[C@H](Cc1ccccc1)C(=O)C(=O)NCc1ccccn1` [Compound 135], for which, under setting [1], the concentration for half-maximal inhibition (IC50) amounted to 57.3 ± 5.3 nM. Consider `C[C@@H](NC(=O)CC1CCOC(C)(C)C1)C(=O)N[C@H](Cc1ccccc1)C(=O)C(=O)NCc1ccccn1` (some centres unmarked) [Compound 136], for which the half-maximal inhibitory concentration (IC50) under setting [1] worked out at 96.5 ± 2.2 nM.
